# According to patent publication US11214594B2, “Antimicrobial peptide having synergistic antibacterial effect with antibiotics on multidrug resistant bacteria, and use thereof” (priority 2016, dated 2022):
# Where a SMILES comes first, the peptide text is derived from it. [ ]: non-standard residue; d: D form.
# Key:
# [1] = system: MDREC 1238; format: cell-based, Escherichia coli
# Method in brief: (§1)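 Each strain is brought to 2×10^6 CFU in nutrient-sufficient Mueller-Hinton medium and dispensed into wells. Peptide solutions, stepwise diluted 2:1 in the same medium, are then added. The minimal concentration preventing growth gives the MIC.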
# [2] = system: MDRPA 2002; format: cell-based, Pseudomonas aeruginosa
# Method in brief: as §1
# [3] = system: MDRPA 2003; format: cell-based, Pseudomonas aeruginosa
# Method in brief: as §1
# [4] = system: MDRAB 12036; format: cell-based, Acinetobacter baumannii
# Method in brief: as §1
# [5] = system: S. typhimurium; assay: microbe, parasite or virus in culture; format: cell-based, Salmonella typhimurium
# Method in brief: as §1
# [6] = system: MDRST 8007; assay: Minimal inhibitory concentration (MIC), single agent; format: cell-based, Salmonella typhimurium; settings: agent alone
# Method in brief: as §1
# [7] = system: MRSA 3114; format: cell-based, Staphylococcus aureus; settings: 3114
# Method in brief: as §1
# [8] = system: MRSA 3126; format: cell-based, Staphylococcus aureus; settings: 3126
# Method in brief: as §1
# [9] = system: MDREC 1229; assay: MIC of antibiotic during combined treatment with antimicrobial peptide; format: cell-based, Escherichia coli
# Method in brief: (§2)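 Antibiotic MIC came from antibiotic dilutions added to bacteria (2×10^6 CFU/ml, MH medium) already combined with peptide serially diluted 2:1 from its own MIC. Swapping the roles of the two agents gave the peptide MIC.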
# [10] = system: MDRAB 12035; assay: as above; format: cell-based, Acinetobacter baumannii
# Method in brief: as §2
# [11] = system: multi-drug resistant bacteria; assay: MIC, summary statements for multi-drug resistant bacteria; format: cell-based
# Method in brief: as §1
# [12] = peptide treatment concentration 1 μg/ml
# [13] = peptide treatment concentration 2 μg/ml
# [14] = peptide treatment concentration 4 μg/ml
# [15] = peptide treatment concentration 6 μg/ml
# [16] = peptide treatment concentration 8 μg/ml
# [17] = peptide treatment concentration 16 μg/ml
# [18] = peptide treatment concentration 32 μg/ml
# [19] = peptide treatment concentration 64 μg/ml
compound,measurement,setting,value
"CC[C@H](C)[C@H](NC(=O)[C@H](CCCCN)NC(=O)[C@H](Cc1c[nH]c2ccccc12)NC(=O)[C@@H](N)CCCNC(=N)N)C(=O)N[C@@H](Cc1ccccc1)C(=O)N[C@@H](CCCCN)C(=O)N[C@@H](CCCCN)C(=O)N[C@H](C(=O)N[C@H](CCCCN)C(=O)N[C@@H](CCCCN)C(=O)N[C@@H](CC(C)C)C(=O)N[C@@H](CC(C)C)C(=O)N[C@@H](Cc1c[nH]cn1)C(=O)N[C@@H](CCC(=O)O)C(=O)N[C@@H](Cc1ccccc1)C(=O)N[C@@H](CCCCN)C(=O)N[C@@H](CCCCN)C(=O)N[C@@H](Cc1ccccc1)C(N)=O)[C@@H](C)CC [PapMA-19, RWK IFK KIk KLL HEF KKF-NH2] (H-RWKIFKKI[dK]KLLHEFKKF-NH2; N-terminus assumed)",Minimal inhibitory concentration MIC,[1],32 µg/mL
same,Minimal inhibitory concentration MIC,[2],64 µg/mL
same,Minimal inhibitory concentration MIC,[3],64 µg/mL
same,Minimal inhibitory concentration MIC,[4],32 µg/mL
same,Minimal inhibitory concentration MIC,[5],32 µg/mL
same,Minimal inhibitory concentration MIC,[6],64 µg/mL
same,Minimal inhibitory concentration MIC,[7],>128 µg/mL
same,Minimal inhibitory concentration MIC,[8],>128 µg/mL
same,"Antibiotic MIC, Erythromycin",[9]; [12],128 µg/mL
same,"Antibiotic MIC, Linezolid",[9]; [12],>128 µg/mL
same,"Antibiotic MIC, Vancomycin",[9]; [12],>128 µg/mL
same,"Antibiotic MIC, Erythromycin",[9]; [13],32 µg/mL
same,"Antibiotic MIC, Linezolid",[9]; [13],128 µg/mL
same,"Antibiotic MIC, Vancomycin",[9]; [13],128 µg/mL
same,"Antibiotic MIC, Erythromycin",[9]; [14],8 µg/mL
same,"Antibiotic MIC, Linezolid",[9]; [14],32 µg/mL
same,"Antibiotic MIC, Vancomycin",[9]; [14],64 µg/mL
same,"Antibiotic MIC, Erythromycin",[9]; [15],2 µg/mL
same,"Antibiotic MIC, Linezolid",[9]; [15],16 µg/mL
same,"Antibiotic MIC, Vancomycin",[9]; [15],8 µg/mL
same,"Antibiotic MIC, Erythromycin",[9]; [16],1 µg/mL
same,"Antibiotic MIC, Linezolid",[9]; [16],16 µg/mL
same,"Antibiotic MIC, Vancomycin",[9]; [16],8 µg/mL
same,"Antibiotic MIC, Erythromycin",[9]; [17],0.5 µg/mL
same,"Antibiotic MIC, Linezolid",[9]; [17],4 µg/mL
same,"Antibiotic MIC, Vancomycin",[9]; [17],4 µg/mL
same,"Antibiotic MIC, Erythromycin",[9]; [18],0 µg/mL
same,"Antibiotic MIC, Linezolid",[9]; [18],0 µg/mL
same,"Antibiotic MIC, Vancomycin",[9]; [18],0 µg/mL
same,"Antibiotic MIC, Erythromycin",[9]; [19],0 µg/mL
same,"Antibiotic MIC, Linezolid",[9]; [19],0 µg/mL
same,"Antibiotic MIC, Vancomycin",[9]; [19],0 µg/mL
same,Erythromycin MIC during combined treatment with peptide,[10]; [12],32 µg/mL
same,Linezolid MIC during combined treatment with peptide,[10]; [12],>128 µg/mL
same,Vancomycin MIC during combined treatment with peptide,[10]; [12],>128 µg/mL
same,Erythromycin MIC during combined treatment with peptide,[10]; [13],16 µg/mL
same,Linezolid MIC during combined treatment with peptide,[10]; [13],128 µg/mL
same,Vancomycin MIC during combined treatment with peptide,[10]; [13],128 µg/mL
same,Erythromycin MIC during combined treatment with peptide,[10]; [14],8 µg/mL
same,Linezolid MIC during combined treatment with peptide,[10]; [14],64 µg/mL
same,Vancomycin MIC during combined treatment with peptide,[10]; [14],64 µg/mL
same,Erythromycin MIC during combined treatment with peptide,[10]; [15],2 µg/mL
same,Linezolid MIC during combined treatment with peptide,[10]; [15],16 µg/mL
same,Vancomycin MIC during combined treatment with peptide,[10]; [15],32 µg/mL
same,Erythromycin MIC during combined treatment with peptide,[10]; [16],0.5 µg/mL
same,Linezolid MIC during combined treatment with peptide,[10]; [16],8 µg/mL
same,Vancomycin MIC during combined treatment with peptide,[10]; [16],16 µg/mL
same,Erythromycin MIC during combined treatment with peptide,[10]; [17],0.125 µg/mL
same,Linezolid MIC during combined treatment with peptide,[10]; [17],4 µg/mL
same,Vancomycin MIC during combined treatment with peptide,[10]; [17],8 µg/mL
same,Erythromycin MIC during combined treatment with peptide,[10]; [18],0 µg/mL
same,Linezolid MIC during combined treatment with peptide,[10]; [18],0 µg/mL
same,Vancomycin MIC during combined treatment with peptide,[10]; [18],0 µg/mL
same,Erythromycin MIC during combined treatment with peptide,[10]; [19],0 µg/mL
same,Linezolid MIC during combined treatment with peptide,[10]; [19],0 µg/mL
same,Vancomycin MIC during combined treatment with peptide,[10]; [19],0 µg/mL
same,Antibacterial activity relative to PapMA-1,[11],twice to four times higher
